Here are results for eleven molecules from patent US10683327B2, “Compounds, linker-drugs and ligand-drug conjugates” (priority 2015, dated 2020).

In the test the test system is FaDu cells. Nature of the test: Potency of AF derivatives: FaDu cell viability by the MTT method. In kind it is cell-based. The note with it: for pIC50: exposure to toxins for 120 hours, MTT; for potency in FaDu cells compared with MMAE and auristatin F (AF): statement in words on Table 2. The method, then: FaDu cells were seeded in Corning CellBIND 96-well plates at densities of 2500 cells/well. […] Then, the cells were rinsed once and assayed for cell viability with the MTT method. The old medium was aspirated and 100 uL of 0.5 mg/mL MTT containing medium was added into each well. After incubation for 4 hours, the MTT reagent was removed and the precipitate was dissolved in DMSO. The photometry intensity of the cells was measured by the microplate reader (Multiskan Ascent, Thermo Labsystems) of absorbance wavelength at 570 nm. Cell viability was calculated by the following equation. Cell Viability (%)=(Ins−Inb)/(Inc−Inb)×100%
In this equation, “Ins” is the photometry intensity of the cells incubated with a given toxin, “Inb” is the intensity of a blank well without cell seeding, and “Inc” is the intensity of the cells incubated with the culture medium only (positive control).

pIC50: −log10 of the molar value. Like-named read-outs stand apart in the source and are kept apart here. Numbered stars: 1 amine (or outer) side, 2 acyl side, 3 side chain; on linkers, the order of the positions; unused ones are H or OH. Square brackets hold non-standard residues; d marks the D form. Peptide text beside a SMILES is read from it. * marks the point of attachment. ξ: configuration not given here. X1 = CC[C@H](C)[C@H]([C@@H](CC(=O)[*:2])OC)N(C)[*:1]; Phe(4-NO2) = N[C@@H](Cc1ccc([N+](=O)[O-])cc1)C(=O)O; Dolaproine = CO[C@@H]([C@@H]1CCCN1)[C@@H](C)C(=O)O; ξDil = CC[C@H](C)C([C@@H](CC(=O)[*:2])OC)N(C)[*:1]; Dil = CC[C@H](C)[C@H](NC)[C@@H](CC(=O)O)OC; Phe(4-NH2) = Nc1ccc(C[C@H](N)C(=O)O)cc1; NMe2Val = CC(C)[C@@H](C(=O)*)N(C)C; X2 = C[C@@H](N*)[C@@H](O)c1ccccc1; NMeV = CN[C@H](C(=O)O)C(C)C; ξF = NC(Cc1ccccc1)C(=O)O; ξV = CC(C)C(N)C(=O)O Some results are limits rather than exact numbers.

The pIC50 is −log10 of the IC50, conventionally taken in molar units. For `CC[C@H](C)[C@@H]([C@@H](CC(=O)N1CCC[C@H]1[C@H](OC)[C@@H](C)C(=O)N[C@@H](Cc1ccccc1)C(=O)O)OC)N(C)C(=O)[C@@H](NC(=O)[C@H](C(C)C)N(C)C)C(C)C` [AF, auristatin F, reference compound] (NMe2Val-V[Dil][Dolaproine]F-OH), the pIC50 (n=6, read-out: IC50) is 7.82.
On to `CC[C@H](C)C([C@@H](CC(=O)N1CCC[C@H]1[C@H](OC)[C@@H](C)C(=O)NC(Cc1ccc(N)cc1)C(=O)Nc1cnc2ccccc2c1)OC)N(C)C(=O)C(NC(=O)[C@H](C(C)C)N(C)C)C(C)C` (some centres unmarked) [3AQ-ANF], for which the “potency in FaDu cells compared with MMAE and auristatin F (AF)” value is given as “comparable to the well-known toxin MMAE”. For the setting “Homo sapiens, FaDu, 120 h, n=6”, this molecule had a pIC50 of 9.46.
Regarding `CC[C@H](C)C([C@@H](CC(=O)N1CCC[C@H]1[C@H](OC)[C@@H](C)C(=O)NC(Cc1ccc(N)cc1)C(=O)NCCc1ccccc1)OC)N(C)C(=O)C(NC(=O)[C@H](C(C)C)N(C)C)C(C)C` (some centres unmarked) [PEA-ANF], the “potency in FaDu cells compared with MMAE and auristatin F (AF)” value is on record as “comparable to the well-known toxin MMAE”. The pIC50 (n=6) is 8.90.
`CC[C@H](C)C([C@@H](CC(=O)N1CCC[C@H]1[C@H](OC)[C@@H](C)C(=O)NC(Cc1ccccc1)C(=O)N[C@@H](Cc1ccc([N+](=O)[O-])cc1)C(=O)O)OC)N(C)C(=O)C(NC(=O)[C@H](C(C)C)N(C)C)C(C)C` (some centres unmarked) [NPEA(COOH)-AF] (NMe2Val-[ξV][ξDil][Dolaproine][ξF][Phe(4-NO2)]-OH) had a pIC50 (Homo sapiens, FaDu, 120 h, n=6) of 7.63.
As for `CC[C@H](C)C([C@@H](CC(=O)N1CCC[C@H]1[C@H](OC)[C@@H](C)C(=O)NC(Cc1ccc(N)cc1)C(=O)NCCc1ccccc1)OC)N(C)C(=O)C(NC(=O)[C@H](C(C)C)N(C)C)C(C)C` (some centres unmarked) [PEA-AAF], the pIC50 (n=6) was 9.41.
For the molecule `CC[C@H](C)[C@H]([C@@H](CC(=O)N1CCC[C@H]1[C@H](OC)[C@@H](C)C(=O)NC(Cc1ccccc1)C(=O)N[C@@H](Cc1ccc(N)cc1)C(=O)O)OC)N(C)C(=O)[C@@H](NC(=O)[C@H](C(C)C)N(C)C)C(C)C` (some centres unmarked) [APEA(COOH)-AF] (NMe2Val-V[X1][Dolaproine][ξF][Phe(4-NH2)]-OH), the “potency in FaDu cells compared with MMAE and auristatin F (AF)” value was “least potency”. Also, the pIC50 (Homo sapiens, FaDu, 120 h, n=6) is less than 7.00.
Consider `CC[C@H](C)[C@@H]([C@@H](CC(=O)N1CCC[C@H]1[C@H](OC)[C@@H](C)C(=O)N[C@H](C)[C@@H](O)c1ccccc1)OC)N(C)C(=O)[C@@H](NC(=O)[C@@H](NC)C(C)C)C(C)C` [MMAE, reference compound] (H-[NMeV]V[Dil][Dolaproine]-X2), for which the pIC50 (n=6, read-out: IC50) was 9.42.
`CC[C@H](C)C([C@@H](CC(=O)N1CCC[C@H]1[C@H](OC)[C@@H](C)C(=O)NC(Cc1ccc(N)cc1)C(=O)Nc1cnc2ccccc2c1)OC)N(C)C(=O)C(NC(=O)[C@H](C(C)C)N(C)C)C(C)C` (some centres unmarked) [3AQ-AAF] had a pIC50 (n=6) of 9.31.
Regarding `CC[C@H](C)[C@H]([C@@H](CC(=O)N1CCC[C@H]1[C@H](OC)[C@@H](C)C(=O)NC(Cc1ccccc1)C(=O)N[C@@H](Cc1ccc(N)cc1)C(=O)OC)OC)N(C)C(=O)[C@@H](NC(=O)[C@H](C(C)C)N(C)C)C(C)C` (some centres unmarked) [APEA(COOMe)-AF] (NMe2Val-V[X1][Dolaproine][ξF][Phe(4-NH2)]-OMe), the “potency in FaDu cells compared with MMAE and auristatin F (AF)” value is on record as “comparable to the well-known toxin MMAE”. The molecule further had a pIC50 (Homo sapiens, FaDu, 120 h, n=6) of 9.03.
For `CC[C@H](C)C([C@@H](CC(=O)N1CCC[C@H]1[C@H](OC)[C@@H](C)C(=O)NC(Cc1ccccc1)C(=O)NCCc1ccc(N)cc1)OC)N(C)C(=O)C(NC(=O)[C@H](C(C)C)N(C)C)C(C)C` (some centres unmarked) [APEA-AF] the same measures were “comparable to the well-known toxin MMAE” and 9.15.
For `CC[C@H](C)C([C@@H](CC(=O)N1CCC[C@H]1[C@H](OC)[C@@H](C)C(=O)NC(Cc1ccccc1)C(=O)N[C@@H](Cc1ccc([N+](=O)[O-])cc1)C(=O)OC)OC)N(C)C(=O)C(NC(=O)[C@H](C(C)C)N(C)C)C(C)C` (some centres unmarked) [NPEA(COOMe)-AF] (NMe2Val-[ξV][ξDil][Dolaproine][ξF][Phe(4-NO2)]-OMe) the same measures were “comparable to the well-known toxin MMAE” and 9.36.
